From patent US20240285681A1, “CELLS FOR TREATING INFECTIONS” (LIfT BioSciences Ltd, priority 2019, published 2024) come the findings set out here.

One experiment concerns P. aeruginosa RP73. The experiment can be described thus: Neutrophil bacterial co-culture (BKA) assay, P. aeruginosa RP73. Conditions: 2 hours. The experiment is classed as cell-based. Here is the method:
(§1) 24 hours prior to use, overnight cultures (ONCs) of all strains (P. aeruginosa: multidrug resistant Cystic Fibrosis isolate RP73 (Di Lorenzo et al (2015), Mol. Immunol., 63, 166-175); MRSA: Community acquired strain USA300 (Diep et al (2006), Lancet, 367, 731-739)) were prepared by inoculating 20 ml tryptic soy broth (3% w/v TSB in deionised water) with 2 stock cryobeads for 24 hours at 37° C., under shaking at 120 rpm (Sciquip mini incu shake). After incubation, ONCs were centrifuged at 2,800 g for 20 minutes at 4° C. The pellet was then resuspended in 10 ml Roswell Park Memorial Institute (RPMI) 1640 medium (commercially available from Sigma-Aldrich, UK). Optical density readings were then taken for all strains and diluted in RPMI 1640 to an OD of 0.015, equivalent of 1×10^7 cfu/ml.
Bacterial cultures were prepared as described above. 100 μl of 1×10^7 cfu/ml bacterial strains were added to either 100 μl RPMI 1640, 100 μl 1×10^7/ml neutrophils or increasing concentrations of Tobramycin (for P. aeruginosa) or Vancomycin (for MRSA) (1, 10, 100 μg/ml). These cultures were then incubated at 37° C., under shaking at 120 rpm for up to 24 hours. At 2, 6 and 24 hours, 20 μl aliquots of each sample were diluted in sterile RPMI at 1/10, 1/100, 1/1000, 1/10000, 1/100000 and 1/1000000 and plated on Tryptic Soy Agar (TSA) and incubated at 37° C. for 24 hours. Post incubation, bacterial colonies were manually counted and the total cfu content quantified.
To validate an in vitro model of neutrophil bacterial killing activity (BKA) assay, increasing concentrations of neutrophils (1×10^5, 5×10^5 and 1×10^6 neutrophils per sample) were incubated with 1×10^6 cfu/ml of the P. aeruginosa strain RP73 under suspension. These neutrophil/bacterial cultures were then incubated for 2 hours at 37° C. under 120 rpm of shaking. […] Post incubation, bacterial colonies were manually counted and the total cfu content quantified.

For another experiment, the system named is MRSA USA300. The experiment can be described thus: Neutrophil bacterial co-culture (BKA) assay, MRSA USA300. The experiment is classed as cell-based, Staphylococcus aureus. The settings on record: 2 hours. Here is the method: The “MRSA assay” is carried out as follows: • a. admixing 100 μl of a 1×10^7 CFU/ml solution of MRSA strain USA300 in RPMI 1640 with 100 μl of a solution containing 1×10^7 granulocytes/ml; • b. incubating the admixture at 37° C. under shaking at 120 rpm; • c. taking a sample at 2 hours (diluting in sterile RPMI as needed) and plating on Tryptic Soy Agar; • d. incubating the plated sample at 37° C. for 24 hours; • e. counting the bacterial colonies; and • f. quantifying the total CFU content; and • g. calculating the % of MRSA cells killed based on the CFU content in steps a. and f using the formula ((CFU contentno effector−CFU contenteffector)/CFU contentno effector)×100.
as §1
Bacterial cultures were prepared as described above. […] Post incubation, bacterial colonies were manually counted and the total cfu content quantified.
To validate an in vitro model of neutrophil bacterial killing activity (BKA) assay, increasing concentrations of neutrophils (1×10^5, 5×10^5 and 1×10^6 neutrophils per sample) were incubated with 1×10^6 cfu/ml of the P. aeruginosa strain RP73 under suspension. […] Post incubation, bacterial colonies were manually counted and the total cfu content quantified.

Structures are written as SMILES. Several values for one entry are separate records, joined by “and”; a condition that tells them apart may be missing. Identical values can stand only once.

Take `NC[C@H]1O[C@H](O[C@H]2[C@H](O)[C@@H](O[C@H]3O[C@H](CO)[C@@H](O)[C@H](N)[C@H]3O)[C@H](N)C[C@@H]2N)[C@H](N)C[C@@H]1O` [Tobramycin]: the “Bacterial Killing (%)” value in the experiment on P. aeruginosa RP73 (antibiotic 1 μg/ml) was 6.60±2.22% and 6.60%; in the experiment with P. aeruginosa RP73 (antibiotic 10 μg/ml), 77.78±13.40% and 77.78%; with P. aeruginosa RP73 (antibiotic 100 μg/ml) it was 95.37±2.87%; in the experiment on MRSA USA300 (antibiotic 10 μg/ml) it was 25.05±6.13%.

Turning to `CN[C@H](CC(C)C)C(=O)N[C@H]1C(=O)N[C@@H](CC(N)=O)C(=O)N[C@H]2C(=O)N[C@H]3C(=O)N[C@H](C(=O)N[C@H](C(=O)O)c4cc(O)cc(O)c4-c4cc3ccc4O)[C@H](O)c3ccc(c(Cl)c3)Oc3cc2cc(c3O[C@@H]2O[C@H](CO)[C@@H](O)[C@H](O)[C@H]2O[C@H]2C[C@](C)(N)[C@H](O)[C@H](C)O2)Oc2ccc(cc2Cl)[C@H]1O` [Vancomycin], the “Bacterial Killing (%)” value with MRSA USA300 (antibiotic 1 μg/ml) is 5.73±3.70% and 5.73%; in the experiment on MRSA USA300 (antibiotic 100 μg/ml), 92.58±2.01%.
